Measurements from patent US11225460B2, “Pyrrolidineamide derivatives and uses thereof” (SUNSHINE LAKE PHARMA CO., LTD., priority 2019, dated 2022).

Legend:
[1] = biological target: T1, Human recombinant monoamine oxidase B (Homo sapiens, UniProt P27338); assay: Inhibitory effect on the activity of monoamine oxidase B; assay type: biochemical; settings: human recombinant MAO-B, substrate benzylamine hydrochloride
T1 construct: host or cells: Sf9 cells
T1 sequence (P27338 1-520): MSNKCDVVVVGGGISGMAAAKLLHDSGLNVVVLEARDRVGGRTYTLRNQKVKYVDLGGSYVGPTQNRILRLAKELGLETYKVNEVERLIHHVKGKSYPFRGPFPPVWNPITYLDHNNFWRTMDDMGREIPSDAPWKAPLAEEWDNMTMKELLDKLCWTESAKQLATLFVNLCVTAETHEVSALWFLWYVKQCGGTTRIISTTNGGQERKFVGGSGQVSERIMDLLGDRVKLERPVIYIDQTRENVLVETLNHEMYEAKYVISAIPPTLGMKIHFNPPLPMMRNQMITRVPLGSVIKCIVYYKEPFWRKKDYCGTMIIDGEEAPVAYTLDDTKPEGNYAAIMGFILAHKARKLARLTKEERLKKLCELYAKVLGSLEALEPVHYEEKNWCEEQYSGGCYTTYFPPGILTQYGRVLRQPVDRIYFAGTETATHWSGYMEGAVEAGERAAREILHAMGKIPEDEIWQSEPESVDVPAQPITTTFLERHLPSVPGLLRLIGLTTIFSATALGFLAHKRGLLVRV
Protocol: Human recombinant monoamine oxidase B expressed in Sf9 cells was used in the test system. In the experiment, firstly, the recombinant monoamine oxidase B was dissolved in the pre-configured HEPES buffer (0.8% NaCl, 0.037% KCl, 0.0135% Na2HPO4.2H2O, 0.1% Glucan, 0.5% HEPES, pH=7.0) at a concentration of 0.3 μg/μL. To each well of a 384-well plate was added 10 μL of monoamine oxidase B solution, and the test compound with different concentrations (the final concentration of DMSO was 1%) (10 gradient concentrations were 10 mM, 1 mM, 100 μM, 10 μM, 1 μM, 100 nM, 10 nM, 1 nM, 0.1 nM, 0.01 nM) were added into the wells respectively. The standard reference compound was R-(−)-Deprenyl, the plate was incubated at room temperature for 15 min. Then, each well filled with 10 μL substrate solution (Benzylamine hydrochloride, 1 mM) was incubated at room temperature for 60 min. Then 20 μL of fluorescein detection reagent was added to each well, which was fully blended and incubated at room temperature for 20 minutes to produce stable fluorescence signal. The fluorescence signal was read by fluorescein labeling instrument, and the value was expressed by relative light intensity (RLU). The inhibitory rate on enzyme activity was calculated according to the experimental results, the calculated formula: Inh %=(Max−Signal)/(Max−Min)*100, wherein Max was the detected value at the maximum concentration of the sample, Min was the detected value at the minimum concentration of the sample, and Signal was the detected value at the current concentration of the sample.
(§1) The standard curve was obtained through the series concentration by experimental test to calculate the IC50.

[2] = Pharmacokinetic evaluation after intravenous or gavage administration in rats; assay type: in vivo, SD rats
Protocol: The LC-MS/MS system comprises Agilent 1200 series vacuum degassing furnace, quaternary pumps, well-plate autosampler, thermostatted column compartment, the API4000Qtrap Triple Quadrupole Mass Spectrometer with an electrospray ionization (ESI) source. Quantitative analysis was carried out using MRM mode. The parameters for MRM transitions are in Table 2.
Analysis was carried out on waters xbridge C18 (2.1×50 mm, […] column, 0.5 μL of sample), the analytic conditions are mobile phases cosisting of water+2 mM ammonium formate+0.1% formic acid (Phase A) and methanol+2 mM ammonium formate+0.1% formic acid (Phase B). The flow rate was 0.4 mL/min. And the gradient of Mobile phase was in Table 3.
Each animal species was divided into two groups: one was administered intravenously and the other was administered intragastrically. The compounds disclosed herein were administered in form of a solution containing 5% DMSO+5% Kolliphor HS15+90% Saline. For the group of intravenous administration, the administration dose was 1 mg/kg, and vein blood samples (0.3 ml) were collected at the time points of 0.083, 0.25, 0.5, 1.0, 2.0, 4.0, 6.0, 8.0 and 24 h after drug administration, then plasma solutions were collected by centrifuging each blood sample at 3000 rpm or 4000 rpm for 10 minutes and kept at −20° C. or −70° C. For the group of intragastric administration, the administration dose was 5 mg/kg, and vein blood samples (0.3 mL) were collected at the time points of 0.25, 0.5, 1.0, 2.0, 4.0, 6.0, 8.0 and 24 h after drug administration, then plasma solutions were collected by centrifuging each blood sample at 3000 rpm or 4000 rpm for 10 minutes and kept at −20° C. or −70° C.
20 μL of plasma was blended with 120 μl, 50 ng/ml propranolol standard water solution, then the mixture was extracted with 1.0 mL methyl tert-butyl ether (MTBE), 0.7 mL of supernatant was dried by blow with nitrogen and then dissolved again with 220 μL methanol water (methanol/water (v/v)=1/1). LC-MS/MS method was used to detect the concentration of the target compounds, and […] was used to calculate the pharmacokinetic parameters.

[3] = biological target: T2, Human recombinant monoamine oxidase A (Homo sapiens, UniProt P21397); assay: Inhibitory effect on the activity of monoamine oxidase A; assay type: biochemical; settings: human recombinant MAO-A, substrate p-tyramine hydrochloride
T2 construct: host or cells: Sf9 cells
T2 sequence (P21397 1-527): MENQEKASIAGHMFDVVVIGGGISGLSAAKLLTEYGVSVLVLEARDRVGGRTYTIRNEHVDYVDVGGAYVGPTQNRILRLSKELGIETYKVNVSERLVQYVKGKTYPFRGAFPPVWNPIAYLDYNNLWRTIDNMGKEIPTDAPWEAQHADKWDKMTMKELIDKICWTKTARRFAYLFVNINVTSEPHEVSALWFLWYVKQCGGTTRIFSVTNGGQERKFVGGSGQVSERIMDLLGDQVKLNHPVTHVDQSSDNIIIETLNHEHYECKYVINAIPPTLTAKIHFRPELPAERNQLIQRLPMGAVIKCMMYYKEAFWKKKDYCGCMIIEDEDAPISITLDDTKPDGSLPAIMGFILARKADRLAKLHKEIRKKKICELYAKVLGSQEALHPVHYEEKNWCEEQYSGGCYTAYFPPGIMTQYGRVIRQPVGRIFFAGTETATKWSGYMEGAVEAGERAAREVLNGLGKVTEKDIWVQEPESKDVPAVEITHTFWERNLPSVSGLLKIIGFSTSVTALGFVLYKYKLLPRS
Protocol: Human recombinant monoamine oxidase A expressed in Sf9 cells was used in the test system. In the experiment, firstly, the recombinant monoamine oxidase A was dissolved in the pre-configured HEPES buffer (0.8% NaCl, 0.037% KCl, 0.0135% Na2HPO4.2H2O, 0.1% Glucan, 0.5% HEPES, pH=7.0) at a concentration of 0.3 μg/μL. To each well of a 384-well plate was added 10 μL of monoamine oxidase A solution, and the test compound with different concentrations (the final concentration of DMSO was 1%) (10 gradient concentrations were 10 mM, 1 mM, 100 μM, 10 μM, 1 μM, 100 nM, 10 nM, 1 nM, 0.1 nM, 0.01 nM) were added into the wells, respectively. The standard reference compound was Clorgyline, the plate was incubated at room temperature for 15 min. Then, each well filled with […] (p-Tyramine hydrochloride, 1 mM) was incubated at room temperature for 60 min. Then 20 μL of fluorescein detection reagent was added to each well, which was fully blended and incubated at room temperature for 20 minutes to produce stable fluorescence signal. The fluorescence signal was read by fluorescein labeling instrument, and the value was expressed by relative light intensity (RLU). The inhibitory rate on enzyme activity was calculated according to the experimental results, the calculated formula: Inh %=(Max−Signal)/(Max−Min)*100, wherein Max was the detected value at the maximum concentration of the sample, Min was the detected value at the minimum concentration of the sample, and Signal was the detected value at the current concentration of the sample.
as §1

[4] = SD, rat, plasma, iv, i.v group, 1 mg/kg
[5] = SD, rat, plasma, po, i.g group, 5 mg/kg

With `CC1(C)C[C@@H](C(N)=O)N(Cc2ccc(OCc3cccc(F)c3)cc2)C1` [Example 8, (S)-1-(4-(3-fluorobenzyloxy)benzyl)-4,4-dimethylpyrrolidine-2-formamide] the IC50 [1] was 1400 nM.
Compound `NC(=O)[C@@H]1CC(F)(F)CN1Cc1ccc(OCc2cccc(F)c2)cc1` [Example 10, (S)-4,4-difluoro-1-(4-(3-fluorobenzyloxy)benzyl)pyrrolidine-2-formamide] has an IC50 [1] of 1100 nM.
With `NC(=O)[C@@H]1CC(F)(F)CN1Cc1ccc(OCc2cccc(F)c2)cc1F` [Example 11, (S)-4,4-difluoro-1-(2-fluoro-4-(3-fluorobenzyloxy)benzyl) pyrrolidine-2-formamide] the IC50 [1] was 2200 nM.
Compound `NC(=O)[C@@H]1C[C@@H](F)CN1Cc1ccc(OCc2cccc(F)c2)cc1` [Example 12, (2S,4R)-4-fluoro-1-(4-(3-fluorobenzyloxy)benzyl)pyrrolidine-2-formamide] has an IC50 [1] of 720 nM, an AUC(0-inf) [2, 4] of 453 ng·h/mL and an AUC(0-t) [2, 4] of 452 ng·h/mL. It also gave a Cmax [2, 4] of 661 ng/mL, an MRT inf [2, 4] of 40 min and a Tmax [2, 4] of 4.98 min. It also gave a clearance [2, 4] of 36.8 mL/min/kg, a half-life [2, 4] of 37 min and an AUC(0-inf) [2, 5] of 1830 ng·h/mL. For the same compound, the AUC(0-t) [2, 5] was 1820 ng·h/mL, the Cmax [2, 5] was 1010 ng/mL and the MRT inf [2, 5] was 78.6 min. For the same compound, the Tmax [2, 5] was 20 min, the half-life [2, 5] was 39.1 min and the F ([2]; i.g group, 5 mg/kg) was 80.7%.
In the case of `C[C@H]1C[C@@H](C(N)=O)N(Cc2ccc(OCc3cccc(F)c3)cc2)C1` [Example 14, (2S,4S)-1-(4-(3-fluorobenzyloxy)benzyl)-4-methylpyrrolidine-2-formamide], the IC50 [3] is reported as 27000 nM and the IC50 [1] is reported as 83 nM.
Compound `C[C@H]1C[C@@H](C(N)=O)N(Cc2ccc(OCc3cccc(F)c3)cc2F)C1` [Example 15, (2S,4S)-1-(2-fluoro-4-(3-fluorobenzyloxy)benzyl)-4-methylpyrrolidine-2-formamide] has an IC50 [3] of 29000 nM and an IC50 [1] of 130 nM.
